Data published in patent US7223783B2, “Indolinone derivatives” (Theravance, Inc., priority 2001, dated 2007).
Read-outs that look alike come from different tables or passages of the source.

Tests used:
[1] = upon oral and intravenous administration; cited from earlier work
[2] = prior art statement; cited from earlier work
VEGFR = target: T1, VEGFR (Homo sapiens, UniProt P35968); assay: Ca2+ release assay (FLIPR) in HUVECs; type: cell-based; conditions: VEGF 40 ng/mL, highest concentration tested 1 μm
T1 construct: against the VEGFR in the FLIPR assay, HUVECs (Walkersville, Md.) were used; endogenous in cells; host or cells: HUVEC

Solubility in water = type: physicochemical
[3] = Pharmacokinetics in male Sprague Dawley rats; type: in vivo, rat
Procedure: To evaluate pharmacokinetics, male Sprague Dawley rats (CD strain, Charles River Laboratories, Wilmington, Mass.) were dosed with test compounds via intravenous (IV) administration, at 1 mg/kg concentration, and oral (PO) administration, at 10 mg/kg concentration. Blood samples were collected from animals pre-dose, and at 2, 5, 15, and 30 minutes, and at 1, 2, 4, 6, 8, and 24 hours post-dose. Plasma concentrations were determined by liquid chromatography-mass spectrometry (LC-MS) (MDS SCIEX API 4000, Applied Biosystems, Foster City, Calif.). Standard pharmacokinetic parameters were assessed by non-compartmental methods using the WinNonlin Version 3.2 software package (Pharsight, Mountain View, Calif.). Oral bioavailability was determined as the ratio of the area under the curve (AUC) in the graph of plasma concentration versus time for PO administration to the corresponding quantity for IV administration.

[4] = system: receptor tyrosine kinases PDGFR, c-Kit, VEGFR and Flt-3; assay: One or more of the FLIPR, MTT and IP/Western whole cell assays; type: cell-based
Procedure: In order to determine the IC50 of test compounds against the VEGFR in the FLIPR assay, HUVECs (Walkersville, Md.) were used. For the determination of IC50s against the PDGFR, a HEK cell line were used that expresses the human PDGFR. 40–50000 cells per well were plated in a 96 well plate. The cells were incubated for 3–4 hours to adhere to the plate. Subsequently, the cells were washed twice in FLIPR buffer (1×HBS, 2 mM CaCl, 10 mM HEPES, pH7.4, 2.5 mM Probenecid, 0.1% BSA). After the second wash 50 μL of the Ca^2+ sensitive dye FLUO-3 (FLUO-3 (AM) TEF Labs, 50 μg in 10 mL FLIPR buffer) was added to the remaining 50 μL buffer in each well. After loading the cells for one hour, the cells were washed twice and the test compounds were added in 50 μL as a 2× solution to the 50 μL of buffer in each well. The cells were incubated with the compounds for 30 minutes and then VEGF (40 ng/mL, BioSource International) for the VEGFR or PDGF (40 ng/mL, BioSource International) for the PDGFR was added. The change in fluorescence intensity was measured in a Fluorometric Image Plate Reader (FLIPR) (Molecular Devices).
The inhibition of mutant Flt-3 ITD is expected to affect the proliferation and viability of AML cells with this mutation. […] The plate was incubated at 37 degrees Celsius for 24 hours and, then, the optical density of the wells was determined spectrophotometrically at 550 nm. […]

Flt-3 ITD = target: T2, Flt-3 ITD (Homo sapiens, UniProt P36888, INS600HVDFREYEYD); assay: Proliferation and viability assay (MTT), cytotoxicity assay; type: cell-based; conditions: MV4-11 AML cells expressing Flt-3 ITD, 48 hours, highest concentration tested 10 μm
T2 construct: MV4-11 cells express Flt-3 ITD; endogenous in cells; host or cells: MV4-11
T2 sequence (P36888 with tags, fused parts or gaps INS600HVDFREYEYD): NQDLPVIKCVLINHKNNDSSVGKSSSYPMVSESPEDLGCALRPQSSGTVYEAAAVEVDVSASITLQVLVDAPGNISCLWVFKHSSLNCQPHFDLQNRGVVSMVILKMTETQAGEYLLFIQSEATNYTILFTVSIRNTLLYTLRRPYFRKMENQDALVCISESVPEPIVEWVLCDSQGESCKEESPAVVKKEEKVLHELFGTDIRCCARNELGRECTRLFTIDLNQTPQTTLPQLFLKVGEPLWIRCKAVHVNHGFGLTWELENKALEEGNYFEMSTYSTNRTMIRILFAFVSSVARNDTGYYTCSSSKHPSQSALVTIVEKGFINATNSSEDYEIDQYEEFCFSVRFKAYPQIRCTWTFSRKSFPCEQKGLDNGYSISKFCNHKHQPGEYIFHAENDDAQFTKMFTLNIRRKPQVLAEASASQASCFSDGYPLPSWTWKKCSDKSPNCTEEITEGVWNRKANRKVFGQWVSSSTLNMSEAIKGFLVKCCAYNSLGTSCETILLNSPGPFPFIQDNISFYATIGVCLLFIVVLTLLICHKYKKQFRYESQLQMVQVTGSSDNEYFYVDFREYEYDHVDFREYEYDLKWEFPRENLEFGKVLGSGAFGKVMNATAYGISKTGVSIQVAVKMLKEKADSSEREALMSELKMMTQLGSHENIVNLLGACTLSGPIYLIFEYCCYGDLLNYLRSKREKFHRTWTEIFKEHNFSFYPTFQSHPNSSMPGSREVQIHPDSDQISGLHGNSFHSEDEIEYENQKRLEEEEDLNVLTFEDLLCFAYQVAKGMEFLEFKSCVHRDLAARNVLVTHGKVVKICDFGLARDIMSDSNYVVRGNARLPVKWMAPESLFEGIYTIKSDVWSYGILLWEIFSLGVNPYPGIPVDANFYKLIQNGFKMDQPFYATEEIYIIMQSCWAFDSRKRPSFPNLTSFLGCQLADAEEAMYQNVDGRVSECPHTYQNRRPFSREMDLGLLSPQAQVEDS

PDGFR [5] = target: T3, PDGFR (Homo sapiens, UniProt P09619); assay: Immunoprecipitation/Western (IP/Western) receptor autophosphorylation; type: cell-based; set-up: expressed in transfected cells; host or cells: HEK PDGFR cell line; conditions: Immunoprecipitation/Western (IP) assay, HEK PDGFR cell line; highest concentration tested 1 μm
Procedure: Immunoprecipitation/Western (IP/Western)
The binding of growth factors to receptor tyrosine kinases like Flt-3 or PDGFR leads to the autophosphorylation of the receptors. The inhibition of autophosphorylation is the objective pursued with kinase inhibitors. By performing an IP/Western experiment the level of receptor autophosphorylation can be assessed directly.
5×10^6 cells (HEK PDGFR cell line for PDGFR, HEK c-Kit for c-Kit, and THP-1, HL-60 or MV4-11 for Flt-3) were incubated for 30 minutes in 2.5 mL of culture media with a defined concentration of test compound. In order to stimulate receptor autophosphorylation, growth factor (PDGF, SCF, or Flt-3 ligand respectively, 50 ng/mL, Biosource International, Camarillo, Calif.) was added for 5 minutes. The cells were then centrifuged and lysed in 500 μL lysis buffer (50 mM Tris pH 7.4, 1% NP-40, 150 mM NaCl, 1 mM EDTA, 1 mM Na3V04). The lysate is centrifuged and 10 μL of antibody against the respective receptor was added to the supernatant (anti-PDGFR (P20), anti-c-Kit (C-19), and anti-Flt-3 (S18), Santa Cruz Biotechnology, Inc.). The immunocomplexes were isolated with Protein G beads (Sigma, St. Louis, Mo.) and PAGE was performed. A Western Blot was done using an antibody against phospho-tyrosine residues (4G10, Upstate Biotechnology, Lake Placid, N.Y.). The intensity of the phospho-tyrosine signal corresponding to various drug concentrations provides a way to determine the IC50 of the test compound for the inhibition of autophosphorylation.

Flt-3 = target: T4, Flt-3 (Homo sapiens, UniProt P36888); conditions: Abstract 497, O'Farrell et al., ASH 2001; cited from earlier work
T4 sequence (P36888 27-993): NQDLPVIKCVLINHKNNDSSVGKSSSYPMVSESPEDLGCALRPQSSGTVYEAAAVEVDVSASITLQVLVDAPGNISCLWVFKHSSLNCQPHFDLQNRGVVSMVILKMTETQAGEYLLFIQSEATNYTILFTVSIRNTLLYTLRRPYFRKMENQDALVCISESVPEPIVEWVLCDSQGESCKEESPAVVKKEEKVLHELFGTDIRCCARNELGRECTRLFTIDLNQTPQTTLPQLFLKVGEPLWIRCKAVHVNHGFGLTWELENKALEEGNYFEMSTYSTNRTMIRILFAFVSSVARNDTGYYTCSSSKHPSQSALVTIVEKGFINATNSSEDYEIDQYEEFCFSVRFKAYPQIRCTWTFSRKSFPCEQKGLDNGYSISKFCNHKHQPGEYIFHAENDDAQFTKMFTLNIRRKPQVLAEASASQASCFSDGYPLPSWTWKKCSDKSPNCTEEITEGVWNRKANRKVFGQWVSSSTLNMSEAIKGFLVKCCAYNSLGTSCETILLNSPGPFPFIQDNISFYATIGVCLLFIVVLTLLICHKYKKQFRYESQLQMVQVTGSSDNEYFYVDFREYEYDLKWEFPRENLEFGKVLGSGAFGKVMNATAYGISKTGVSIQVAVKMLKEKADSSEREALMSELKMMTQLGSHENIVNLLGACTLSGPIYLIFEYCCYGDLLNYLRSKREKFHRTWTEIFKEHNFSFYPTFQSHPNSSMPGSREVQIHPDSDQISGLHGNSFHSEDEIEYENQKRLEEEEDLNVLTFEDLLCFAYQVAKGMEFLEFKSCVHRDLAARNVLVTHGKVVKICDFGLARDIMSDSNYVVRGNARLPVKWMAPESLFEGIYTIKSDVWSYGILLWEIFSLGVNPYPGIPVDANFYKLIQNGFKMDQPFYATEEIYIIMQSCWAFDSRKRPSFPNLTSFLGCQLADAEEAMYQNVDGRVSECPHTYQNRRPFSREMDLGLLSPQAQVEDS

PDGFR [6] = target: T3, PDGFR; assay: Ca2+ release assay (FLIPR) in HEK cell line expressing human PDGFR; type: cell-based; set-up: expressed in transfected cells; host or cells: HEK; conditions: HEK cells expressing human PDGFR, PDGF 40 ng/mL

T1 sequence (P35968 20-1356): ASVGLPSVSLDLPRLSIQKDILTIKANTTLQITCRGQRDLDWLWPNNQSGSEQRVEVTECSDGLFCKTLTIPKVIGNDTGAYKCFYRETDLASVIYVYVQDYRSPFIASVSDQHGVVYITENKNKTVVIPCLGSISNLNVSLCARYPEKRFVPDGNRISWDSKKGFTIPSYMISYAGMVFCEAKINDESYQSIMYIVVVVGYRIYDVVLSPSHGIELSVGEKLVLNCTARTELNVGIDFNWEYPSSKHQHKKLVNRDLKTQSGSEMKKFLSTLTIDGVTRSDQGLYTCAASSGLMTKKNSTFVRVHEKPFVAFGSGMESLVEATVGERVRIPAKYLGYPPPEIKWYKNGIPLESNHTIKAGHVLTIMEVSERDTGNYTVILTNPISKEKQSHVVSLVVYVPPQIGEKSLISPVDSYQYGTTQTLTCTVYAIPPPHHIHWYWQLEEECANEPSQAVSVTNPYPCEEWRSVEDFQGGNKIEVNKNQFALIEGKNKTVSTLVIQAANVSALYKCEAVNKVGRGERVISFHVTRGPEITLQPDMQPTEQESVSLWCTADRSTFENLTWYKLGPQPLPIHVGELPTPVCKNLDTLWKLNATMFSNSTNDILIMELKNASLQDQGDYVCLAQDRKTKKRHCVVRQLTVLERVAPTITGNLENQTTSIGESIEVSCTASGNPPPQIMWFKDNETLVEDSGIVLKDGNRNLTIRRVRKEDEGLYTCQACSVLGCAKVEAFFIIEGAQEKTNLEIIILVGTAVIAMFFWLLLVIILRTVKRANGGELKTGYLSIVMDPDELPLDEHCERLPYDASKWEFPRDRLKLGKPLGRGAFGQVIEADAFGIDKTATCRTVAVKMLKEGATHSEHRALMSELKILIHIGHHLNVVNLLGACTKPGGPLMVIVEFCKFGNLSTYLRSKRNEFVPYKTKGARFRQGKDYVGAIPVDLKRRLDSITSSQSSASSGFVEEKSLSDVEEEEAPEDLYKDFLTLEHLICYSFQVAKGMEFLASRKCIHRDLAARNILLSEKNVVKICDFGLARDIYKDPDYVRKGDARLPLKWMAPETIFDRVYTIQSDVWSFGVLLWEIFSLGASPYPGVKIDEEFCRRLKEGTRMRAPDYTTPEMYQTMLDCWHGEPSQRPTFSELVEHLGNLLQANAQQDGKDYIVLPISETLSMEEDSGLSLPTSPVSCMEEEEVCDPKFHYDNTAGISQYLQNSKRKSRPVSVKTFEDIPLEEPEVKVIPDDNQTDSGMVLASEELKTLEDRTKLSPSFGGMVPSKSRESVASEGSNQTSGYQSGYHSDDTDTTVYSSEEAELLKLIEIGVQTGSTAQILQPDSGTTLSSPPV
T3 sequence (P09619 33-1106): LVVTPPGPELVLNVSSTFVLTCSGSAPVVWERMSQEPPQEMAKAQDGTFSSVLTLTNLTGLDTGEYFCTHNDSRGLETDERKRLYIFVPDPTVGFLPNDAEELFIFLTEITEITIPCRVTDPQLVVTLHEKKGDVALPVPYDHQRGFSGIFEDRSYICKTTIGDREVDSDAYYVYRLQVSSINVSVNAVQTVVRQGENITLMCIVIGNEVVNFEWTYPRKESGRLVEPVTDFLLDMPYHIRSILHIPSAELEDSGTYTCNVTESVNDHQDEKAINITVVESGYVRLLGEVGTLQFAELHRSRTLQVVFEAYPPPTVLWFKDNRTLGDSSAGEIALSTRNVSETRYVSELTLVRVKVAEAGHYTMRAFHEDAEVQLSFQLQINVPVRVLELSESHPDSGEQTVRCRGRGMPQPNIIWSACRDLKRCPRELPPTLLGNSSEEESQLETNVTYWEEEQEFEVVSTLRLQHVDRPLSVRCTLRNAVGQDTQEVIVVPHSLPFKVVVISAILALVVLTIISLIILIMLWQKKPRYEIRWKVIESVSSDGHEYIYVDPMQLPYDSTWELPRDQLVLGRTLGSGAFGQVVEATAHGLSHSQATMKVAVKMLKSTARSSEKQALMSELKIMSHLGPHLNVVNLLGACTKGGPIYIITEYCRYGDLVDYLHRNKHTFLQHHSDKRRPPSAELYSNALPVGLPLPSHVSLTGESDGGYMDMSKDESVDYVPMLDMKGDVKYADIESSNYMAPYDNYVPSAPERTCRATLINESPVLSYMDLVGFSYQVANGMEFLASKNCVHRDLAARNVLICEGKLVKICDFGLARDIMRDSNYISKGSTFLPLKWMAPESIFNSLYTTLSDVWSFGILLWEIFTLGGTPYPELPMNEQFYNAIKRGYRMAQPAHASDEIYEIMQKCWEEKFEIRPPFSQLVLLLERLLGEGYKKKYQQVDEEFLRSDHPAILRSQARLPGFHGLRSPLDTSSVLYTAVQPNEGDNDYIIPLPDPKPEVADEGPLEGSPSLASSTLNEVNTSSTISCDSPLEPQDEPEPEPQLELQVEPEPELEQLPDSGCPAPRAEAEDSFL

SMILES | bioavailability [1] | Solubility in water [2] | IC50 (VEGFR) [nM] | VEGFR IC50 (VEGFR) | Solubility in water (Solubility in water) | bioavailability ([3]; male, Sprague-Dawley, rat, plasma, oral, 10 mg/kg) [%] | Absorption on oral administration ([3]; oral administration) | Inhibition of one or more of PDGFR, c-Kit, VEGFR and Flt-3 [4] | EC50 (Flt-3 ITD) [nM] | Flt-3 EC50 (Flt-3 ITD) | IC50 (PDGFR [5]) [nM] | PDGFR IC50 (PDGFR [5]) | Ability to inhibit the receptor tyrosine kinase Flt-3 (Flt-3) | IC50 (PDGFR [6]) [nM] | PDGFR IC50 (PDGFR [6])
Cc1cc(C)c(/C=C2\C(=O)Nc3ccccc32)[nH]1 [SU5416] | low bioavailability | poor solubility in water | – | – | – | – | – | – | – | – | – | – | – | – | –
Cc1[nH]c(C=C2C(=O)Nc3ccccc32)c(C)c1CCC(=O)N1CCNCC1.O=C(O)C(F)(F)F [Example 1, 3-[3,5-dimethyl-4-(3-oxo-3-piperazin-1-yl-propyl)-1H-pyrrol-2-ylmethylene]-1,3-dihydroindol-2-one, trifluoroacetate] | – | – | 20 | sub-micromolar activity | high solubility in water | 50.6 | excellent absorption | highly potent and selective inhibitor | 240 | sub-micromolar activity | 30 | sub-micromolar activity | – | – | –
Cc1[nH]c(C=C2C(=O)Nc3ccccc32)c(C)c1CCC(=O)O [SU6668, 3-[2,4-dimethyl-5-(2-oxo-1,2-dihydroindol-3-ylidenemethyl)-1H-pyrrol-3-yl]propionic acid, reference compound] | – | – | – | No activity** | – | – | – | – | – | No activity* | – | No activity**^# | lack the ability | – | –
CCN1CCN(C(=O)CCc2c(C)[nH]c(C=C3C(=O)Nc4ccccc43)c2C)CC1.O=C(O)C(F)(F)F [Example 22, 3-[3,5-dimethyl-4-[3-oxo-3-(4-ethyl)piperazin-1-ylpropyl]-1H-pyrrol-2-ylmethylene]-1,3-dihydroindol-2-one, trifluoroacetate] | – | – | 30 | sub-micromolar activity | – | – | – | – | 220 | sub-micromolar activity | – | – | – | 90 | sub-micromolar activity
